Data published in US20230391727A1, “ANALOGUES OF PENTAMIDINE AND METHODS FOR TREATING INFECTIONS” (Auransa Inc., priority 2020, published 2023).
Values after ≈ are worked out from the molar mass of the structure shown.

Columns and labels:
[1] = system: Staphylococcus aureus ATCC 19636; test: MIC assay against gram positive and antibiotic-resistant S. aureus; format: cell-based; details: ATCC19636; Staphylococcus aureus ATCC 19636; read-out: MIC
Procedure: (§1) The MICs of vancomycin and linezolid were determined as quality controls and the MIC values of each strain met the acceptance criteria based on PDS historical reference data.
(§2) The direct colony suspension method was used to prepare inoculated broth. Isolated colonies were taken from an 18-24 h culture plate. Optical density measurements (OD620 nm) were used to estimate the bacterial density. The test article, compound 3, and reference control stock solutions were prepared in 100% DMSO as 50× stock solutions. The 50× stock solutions were diluted by 2-fold serial titrations with 100% DMSO for a total of 11 concentrations. A 4 μL aliquot of each dilution was added to 196 μL of cation-adjusted Mueller Hinton Broth II medium seeded with the organism in wells of a 96 well plate. The final vehicle concentration was two percent (2%) in all assay wells. The final bacterial count was 2 to 8×10^5 CFU/mL. The final compound 3 concentration range was 16 to 0.016 μg/mL. Each test substance dilution was evaluated in duplicate on one test occasion. Vehicle-control and reference controls were used as blank and positive controls, respectively. Plates were incubated at 35-37° C. for 18 h. The test plates were visually examined and each well was visually scored for growth or complete inhibition of growth. The MIC value was recorded.

[2] = system: Staphylococcus aureus ATCC 33591 (MRSA); test: as above; format: cell-based; details: Staphylococcus aureus ATCC 33591, MRSA; read-out: MIC
Procedure: as §1, §2

[3] = system: Staphylococcus aureus BAA-1556 (MRSA); test: as above; format: cell-based; details: Staphylococcus aureus BAA-1556, MRSA; read-out: MIC
Procedure: as §1, §2

[4] = system: Staphylococcus aureus VRS-2 (VRSA); test: as above; format: cell-based; details: Staphylococcus aureus VRS-2, VRSA; read-out: MIC
Procedure: as §1, §2

[5] = Pharmacokinetic analysis, tissue and plasma exposure; details: male C57BL6 mice, 10 mg/kg subcutaneous administration; kidney, liver, and lung
Procedure: To determine whether target concentrations/exposures of these compounds can be achieved at various target organs, exposures of compound 3 were tested in kidney, liver, spleen, lung peritoneal fluid and plasma of male C57BL6 mice (5 mice per group). Compound 3 was dosed at 10 mg/kg subcutaneously with each group having samples taken at time indicated (FIG. 7).

## N=C(N)c1ccc(CC[C@H]2CCC[C@@H](CCc3ccc(C(=N)N)cc3)C2)cc1 [Compound 3, 4,4′-(2,2′-((1R,3S)-cyclohexane-1,3-diyl)bis(ethane-2,1-diyl))dibenzimidamide]
[1]
  MIC: 0.125 µg/mL (≈ 0.332 µM)
[2]
  MIC: 0.125 µg/mL (≈ 0.332 µM)
[3]
  MIC: 0.25 µg/mL (≈ 0.664 µM)
[4]
  MIC: 0.25 µg/mL (≈ 0.664 µM)
[5]
  exposure relative to target concentrations for pharmacology: target concentrations for pharmacology could be achieved
